Laboratory results reported in US11166960B2, “Modified release preparations containing oxcarbazepine and derivatives thereof” (Supernus Pharmaceuticals, Inc., priority 2006, dated 2021).
Where two headings read alike, the source gives them in different places.

How the values were obtained:
[1] = Solubility of oxcarbazepine in the presence of excipients; format: physicochemical
Procedure: The solubility of oxcarbazepine in the presence of excipients was evaluated as follows: Excipients were dissolved in phosphate buffer to make solutions with concentrations shown in Table 3. One gram of oxcarbazepine was then mixed with 19 gm of the excipient solution. The mixture was rocked overnight at room temperature and then filtered using 0.22 μm filter. The filtrates were analyzed by HPLC.

[2] = as above; format: physicochemical; settings: de-ionized water, thermodynamic from solid

NC(=O)N1c2ccccc2CC(=O)c2ccccc21 [Oxcarbazepine]
solubility ([1]; Kollidon 17 1% w/w in phosphate buffer): 171.7 µg/mL | solubility ([1]; aqueous with cosolvent or surfactant or cyclodextrin, thermodynamic from solid, Hydroxypropyl betacyclodextrin (HBCD) 5% w/w in phosphate buffer, read-out: Solubility): 1020 µg/mL | solubility ([1]; aqueous with cosolvent or surfactant or cyclodextrin, thermodynamic from solid, SLS/Stearic Acid/PEG400 5, 1, 1% w/w in phosphate buffer, read-out: Solubility): 3280 µg/mL | solubility ([1]; phosphate buffer (control, no excipient), aqueous buffer, thermodynamic from solid, Phosphate Buffer Control, room temperature overnight, read-out: Solubility): 401 µg/mL | solubility ([1]; phosphate buffer with 1% w/w Cremophor RH40, aqueous with cosolvent or surfactant or cyclodextrin, thermodynamic from solid, Cremophor RH40 1% w/w in phosphate buffer, read-out: Solubility): 314 µg/mL | solubility ([1]; phosphate buffer with 1% w/w SLS and 1% w/w HBCD, aqueous with cosolvent or surfactant or cyclodextrin, thermodynamic from solid, SLS/HBCD 1, 1% w/w in phosphate buffer, read-out: Solubility): 349 µg/mL | solubility ([1]; phosphate buffer with 5% w/w SLS and 1% w/w PEG400, aqueous with cosolvent or surfactant or cyclodextrin, thermodynamic from solid, SLS/Polyethylene Glycol 400 (PEG400) 5, 1% w/w in phosphate buffer, read-out: Solubility): 3050 µg/mL | solubility ([1]; phosphate buffer with 5% w/w docusate sodium, aqueous with cosolvent or surfactant or cyclodextrin, thermodynamic from solid, Docusate Sodium 5% w/w in phosphate buffer, read-out: Solubility): 6550 µg/mL | solubility ([1]; phosphate buffer with 5% w/w sodium lauryl sulfate (SLS), aqueous with cosolvent or surfactant or cyclodextrin, thermodynamic from solid, Sodium Lauryl Sulfate (SLS) 5% w/w in phosphate buffer, read-out: Solubility): 4110 µg/mL | solubility [2]: 273 µg/mL
